Reference: patent publication US11440870B2, “Cannabidiolic acid esters compositions and uses thereof” (Yissum Research Development Company of the Hebrew …, priority 2017, dated 2022)

Legend:
[1] = test system: anxiety-like responding in rats; test: Light-dark box emergence test after foot shock stress (anxiety-like responding); format: in vivo, male Sprague-Dawley rats; settings: for Time spent in the light box after foot shock (FS) stress vs No FS: 0.01 μg·kg−1 i.p., 45 min before 5 min test, 24 h after FS
From the text: (§1) Animal procedures complied with the Canadian Council on Animal Care, and the protocols were approved by the Institutional Animal Care Committee at University of Guelph. Animal studies are reported in compliance with the ARRIVE guidelines (Kilkenny et al., 2010; McGrath and Lilley, 2015). A total of 200 näive male Sprague-Dawley rats, obtained from Charles River Laboratories (St Constant, Quebec), were used for all in vivo studies. Rats were individually housed (for acute nausea studies) or pair-housed [for anticipatory nausea and light-dark emergence studies] in home cages made of opaque white plastic (48×26×20 cm), containing bed-o-cob bedding from Harlan Laboratories, Inc. (Mississauga, Ontario), a brown paper towel, and Crinkl'Nest™ from The Andersons, Inc. (Maumee, Ohio). Additionally, in the home cage, rats were provided with a soft white paper container that was 14 cm long and 12 cm in diameter. All rats were subjected to an ambient temperature of 21° C. and a 12/12 h light-dark schedule (lights off at 07:00 h) and maintained on food (Highland Rat Chow [8640]) and water ad libitum. For the acute and anticipatory nausea studies, their body weights ranged from 263 to 329 g on the day of conditioning. For the light-dark emergence studies, their body weights ranged from 320 to 387 g on the day of test.
For the in vivo experiment 3, anxiolytic-like responding was evaluated using the light-dark emergence apparatus, which consisted of an opaque white plastic rectangular box that was divided into two compartments: a small (25 cm wide×20.5 cm long×20.5 cm high) enclosed dark box built of opaque black plastic with a door (8 cm wide×10 cm high) leading to a larger (39.5 cm long×25 cm wide) open lit box. The open lit box was illuminated by one lamp (with a 60 W bulb, 180 lux in the light chamber) positioned 115 cm above the center of the lit box. A video camera was mounted over the top of the light-dark box, and the video tapes were analyzed by the Ethovision software (Noldus Information Technology, Leesburg, Va., USA) for the duration of time spent in the light box for the 5 min test. For the foot shock (FS) session, the rats were placed in sound attenuating MED Associates fear conditioning chambers (St. Albans, Vt., USA). The 6 min FS session consisted of six 0.8 mA foot shocks delivered 1 min apart. Each 0.5 s shock was preceded by a 30 s auditory tone (90 Db, 5000 Hz) as described by Bluett et al. (2014).
The effect of CBDA and HU-580 on anxiety-like responding was evaluated using the light-dark box emergence test following either foot shock stress or no foot shock (No FS) stress. […]

[2] = test system: LiCl-induced conditioned gaping (acute nausea) in rats; test: Acute nausea: LiCl-induced conditioned gaping (taste reactivity test) in rats; format: in vivo, male Sprague-Dawley rats; settings: for LiCl-induced conditioned gaping relative to vehicle: 45 min before conditioning; for Lowest effective dose for suppression of acute nausea-induced conditioned gaping: i.p., rats (FIG. 3)
From the text: as §1
For the studies of acute nausea (in vivo experiment 1), rats were placed in taste reactivity (Grill and Norgren, 1978) chambers with their cannula attached to an infusion pump (Model KDS100, KD Scientific, Holliston, Mass., USA) for fluid delivery. The taste reactivity chambers were made of clear Plexiglas (22.5×26×20 cm) that sat on a table with a clear glass top. A mirror beneath the chamber at a 45° angle facilitated viewing of the ventral surface of the rat to observe orofacial responses. The conditioning chamber was in a dark room next to a 25 W light source. A video camera (Sony DCR-HC48, Henry's Cameras, Waterloo, ON, Canada) fire-wired into a computer was focused on the mirror and used to record each rat's orofacial reactions during the 2 min taste reactivity test. The video tapes were later scored using ‘The Observer’ (Noldus Information Technology Inc., Leesburg, Va., USA) software.
All rats were surgically implanted with an intraoral cannula according the procedures described by Limebeer et al. (2010). On the day of surgery, the rats were injected with an antibiotic (Derapin: […] s.c.; Pfizer Animal Health, Pfizer Canada Inc, Kirkland, Quebec, Canada) 30 min prior to being anaesthetized with isoflurane (4-5% induction, 1.5% maintenance in O2). Surgical plane anesthesia, as indicated by absence of the hind limb withdrawal reflex and defined by the Canadian Council of Animal Care, was induced before any surgery began, and was adjusted as necessary. Once sufficient anesthesia had been induced, a 2 cm^2 section of skin was shaved at the back of the neck at the level of the scapula. The skin was prepared by cleaning with soap (Bactistat; Ecolab, St. Paul, Minn., USA) and wiping with 70% isopropyl alcohol followed by 7% Betadine solution (Purdue Products L.P., Stamford, Conn., USA). Each rat was then administered a 5 mg·kg^−1 injection (i.p.) of the anti-inflammatory/analgesic drug carprofen (Rimadyl; Pfizer Canada Inc., Kirkland, Quebec, Canada). A thin-walled 15-gauge stainless steel needle was inserted into the shaved area on the neck, directed subcutaneously around the ear and brought out behind the first molar inside the mouth. A 10 cm length of Intra Medic PE90 tubing (Clay Adams Brand; Becton Dickinson and Co., Sparks, Md., USA) with an inner diameter of 0.86 mm and an outer diameter of 1.27 mm was then inserted through the needle after which the needle was removed. Betadine (10%) was applied to the puncture site and three elastic discs (2 cm^2) were placed over the exposed end of the tubing and drawn to the skin at the back of the neck for the purpose of stabilizing the cannula. […]

Row | SMILES | Time spent in the light box after foot shock (FS) stress vs No FS [1] | LiCl-induced conditioned gaping relative to vehicle ([2]; 0.1 μg·kg−1 i.p.) | LiCl-induced conditioned gaping relative to vehicle ([2]; 1 μg·kg−1 i.p., P<0.05) | Lowest effective dose for suppression of acute nausea-induced conditioned gaping [2] [µg/kg] | Time spent in the light box after foot shock (FS) stress vs No FS, with 5-HT1A antagonist pretreatment ([1]; WAY100635 15 min before 0.01 μg·kg−1 HU-580 i.p., P=0.05) | Suppressive effect on acute nausea after 5-HT1A antagonist pretreatment ([2]; 0.1 μg·kg−1 HU-580 i.p., WAY100635 0.1 mg·kg−1 15 min before)
1 | C=C(C)[C@@H]1CCC(C)=C[C@H]1c1c(O)cc(CCCCC)c(C(=O)O)c1O [CBDA, Cannabidiolic acid] | spent less time in the light box following FS stress than following No FS stress | subthreshold | reduced LiCl-induced gaping responses relative to vehicle | 1 | – | –
2 | C=C(C)[C@@H]1CCC(C)=C[C@H]1c1c(O)cc(CCCCC)c(C(=O)OC)c1O [HU-580, Cannabidiolic Acid Methyl Ester] | reversed the effect of FS | reduced LiCl-induced conditioned gaping behavior relative to vehicle | reduced LiCl-induced gaping responses relative to vehicle | 0.1 | spent less time in the light box following FS stress than following No FS stress | blocked by WAY100635
